Laboratory results taken from US20260137697A1, “THIAZOLO[5,4-D]PYRIMIDINE COMPOUNDS, COMPOSITIONS COMPRISING THEM AND USES THEREOF” (University de Montreal, priority 2022, published 2026).

Columns and labels:
pERK, HCT116 cells = test: Phospho-ERK inhibition, AlphaLISA p-ERK 1/2, HCT-116; format: cell-based, human; settings: for IC50: HCT116 cells (KRAS G13D), 1 h treatment; for HCT116 pERK (Ymin %): lowest % inhibition value of the pERK IC50 curve, above −20% = no paradoxical induction
Outline: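 Cells in RPMI-1640 with 5% FBS plated overnight, then treated 1 h with ten-point dilutions (10 μM to 0.33 nM, 0.5% DMSO). Lysate p-ERK1/2 (Thr202/Tyr204) read by AlphaLISA SureFire Ultra; % inhibition normalised to DMSO and 1 μM trametinib background, IC50 by four-parameter fit.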

CRAF = target: T1, CRAF (Homo sapiens, UniProt P04049); test: CRAF kinase activity assay (ADP-Glo); format: biochemical; settings: 10 μM ATP, kinase-dead MEK1 substrate
T1 construct: fused on or other part: GST tag (N-terminal according to the vendor's product)
Outline: (§1)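 GST-tagged kinase (0.375 nM) with 75 nM kinase-dead MEK1 and 10 μM ATP in HEPES pH 7.5 buffer, 2 h at 30° C, nine concentrations 100–0.01 nM, 0.05% DMSO. ADP-Glo luminescence; % inhibition vs DMSO and substrate-only blanks, IC50 by four-parameter fit.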

BRAF = target: T2, BRAF (Homo sapiens, UniProt P15056); test: BRAF kinase activity assay (ADP-Glo); format: biochemical; settings: 10 μM ATP, kinase-dead MEK1 substrate
T2 construct: GST; purchased Millipore Sigma B4062-10UG
Outline: as §1

T2 sequence (P15056 whole entry): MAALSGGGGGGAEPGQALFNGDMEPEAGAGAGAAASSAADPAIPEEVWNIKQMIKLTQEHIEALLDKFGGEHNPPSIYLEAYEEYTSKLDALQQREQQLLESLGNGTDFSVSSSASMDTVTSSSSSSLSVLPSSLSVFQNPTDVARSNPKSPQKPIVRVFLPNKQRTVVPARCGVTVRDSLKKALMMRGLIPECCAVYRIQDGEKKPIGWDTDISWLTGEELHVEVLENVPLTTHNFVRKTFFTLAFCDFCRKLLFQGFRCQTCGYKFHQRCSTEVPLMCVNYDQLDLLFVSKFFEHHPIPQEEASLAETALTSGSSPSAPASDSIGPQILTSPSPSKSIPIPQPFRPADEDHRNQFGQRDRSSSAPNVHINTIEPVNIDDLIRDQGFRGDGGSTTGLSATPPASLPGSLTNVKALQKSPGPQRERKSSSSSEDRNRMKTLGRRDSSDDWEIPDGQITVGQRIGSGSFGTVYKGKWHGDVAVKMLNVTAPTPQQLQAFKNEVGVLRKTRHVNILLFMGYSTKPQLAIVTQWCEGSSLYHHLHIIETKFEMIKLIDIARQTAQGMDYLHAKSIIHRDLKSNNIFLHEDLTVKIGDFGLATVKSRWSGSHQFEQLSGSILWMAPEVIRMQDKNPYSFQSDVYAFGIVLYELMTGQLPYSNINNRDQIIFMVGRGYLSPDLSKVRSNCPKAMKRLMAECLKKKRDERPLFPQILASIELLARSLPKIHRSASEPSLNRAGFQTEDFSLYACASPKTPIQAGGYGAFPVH
T1 sequence (P04049 whole entry Y340E/Y341E, form open, the tested form may be a part): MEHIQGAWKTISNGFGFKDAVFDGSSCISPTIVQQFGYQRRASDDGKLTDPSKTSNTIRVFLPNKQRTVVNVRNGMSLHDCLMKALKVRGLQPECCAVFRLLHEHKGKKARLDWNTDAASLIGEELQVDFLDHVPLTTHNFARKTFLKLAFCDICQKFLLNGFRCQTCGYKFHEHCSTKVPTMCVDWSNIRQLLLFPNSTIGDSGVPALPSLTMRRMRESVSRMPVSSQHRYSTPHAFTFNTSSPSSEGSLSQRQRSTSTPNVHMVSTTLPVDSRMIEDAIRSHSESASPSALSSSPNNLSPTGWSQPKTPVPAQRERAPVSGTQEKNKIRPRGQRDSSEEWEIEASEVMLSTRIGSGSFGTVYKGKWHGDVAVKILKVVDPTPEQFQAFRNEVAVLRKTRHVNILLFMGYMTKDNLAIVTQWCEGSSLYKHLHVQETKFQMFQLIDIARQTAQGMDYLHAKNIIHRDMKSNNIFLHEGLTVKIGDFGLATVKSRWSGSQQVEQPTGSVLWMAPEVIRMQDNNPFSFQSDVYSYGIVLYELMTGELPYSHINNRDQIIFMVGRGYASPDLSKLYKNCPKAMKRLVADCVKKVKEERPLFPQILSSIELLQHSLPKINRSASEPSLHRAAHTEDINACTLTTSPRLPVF

Row | SMILES | IC50 (pERK, HCT116 cells; Table 3) | IC50 (CRAF; Table 3) | IC50 (BRAF; Table 3) | IC50 (pERK, HCT116 cells; Homo sapiens, HCT-116, Table 3) | IC50 (pERK, HCT116 cells; Homo sapiens, HCT-116, Table 4) | IC50 (CRAF; Table 4) | IC50 (BRAF; Table 4) | HCT116 pERK (Ymin %) (pERK, HCT116 cells; Table 3)
1 | COc1ccc(S(=O)(=O)Nc2ccc(F)c(Nc3ncnc4sc(-n5cnc6c(C(C)(C)C#N)cccc65)nc34)c2F)c(C)c1F [Example 118] | < 500 nM | > 50 nM | > 10 nM |  |  |  |  | −14%
2 | N#CCc1cn(-c2nc3c(Nc4c(F)ccc(NS(=O)(=O)c5cccc(Cl)c5Cl)c4F)ncnc3s2)cn1 [Example 124] | < 500 nM | < 10 nM | 1 to 10 nM |  |  |  |  | 12%
3 | Cc1c(F)cccc1S(=O)(=O)Nc1ccc(F)c(Nc2ncnc3sc(-n4cnc5c(C(C)(C)C#N)cccc54)nc23)c1F [Example 112] | < 500 nM | < 10 nM | 1 to 10 nM |  |  |  |  | 7%
4 | CC(C)(O)C1CN(C(=O)c2cn(-c3nc4c(Nc5c(F)ccc(NS(=O)(=O)c6cccc(Cl)c6Cl)c5F)ncnc4s3)c3ccccc23)C1 [Example 87] | 500 to 1000 nM | < 10 nM | 1 to 10 nM |  |  |  |  | −8%
5 | NS(=O)(=O)c1cn(-c2nc3c(Nc4c(F)ccc(NS(=O)(=O)c5cccc(Cl)c5Cl)c4F)ncnc3s2)c2ccccc12 [Example 61] | < 500 nM | < 10 nM | 1 to 10 nM |  |  |  |  | −13%
6 | Cc1c(F)cccc1S(=O)(=O)Nc1ccc(F)c(Nc2ncnc3sc(-n4cnc5ccccc54)nc23)c1F [Example 7] | < 500 nM | < 10 nM | 1 to 10 nM |  |  |  |  | −5%
7 | Cc1c(F)cccc1S(=O)(=O)Nc1ccc(F)c(Nc2ncnc3sc(-n4nc(C(=O)NCc5cccnc5)c5ccccc54)nc23)c1F [Example 24] | 500 to 1000 nM | 10 to 50 nM | > 10 nM |  |  |  |  | 2%
8 | Cc1c(F)cccc1S(=O)(=O)Nc1ccc(F)c(Nc2ncnc3sc(-n4nnc5ccccc54)nc23)c1F [Example 22] | 1000 to 10000 nM | > 50 nM | > 10 nM |  |  |  |  | −8%
9 | COCCN(C)C(=O)c1nn(-c2nc3c(Nc4c(F)ccc(NS(=O)(=O)c5cccc(F)c5C)c4F)ncnc3s2)c2ccccc12 [Example 26] | 1000 to 10000 nM | > 50 nM | > 10 nM |  |  |  |  | −13%
10 | Cc1c(F)cccc1S(=O)(=O)Nc1ccc(F)c(Nc2ncnc3sc(-n4cc(C(=O)N5C6CCC5COC6)c5ccccc54)nc23)c1F [Example 40] | < 500 nM | < 10 nM | < 1 nM |  |  |  |  | −7%
11 | Cc1c(F)cccc1S(=O)(=O)Nc1ccc(F)c(Nc2ncnc3sc(-n4cnc5c(-c6cccnc6)cccc54)nc23)c1F [Example 8] |  | 10 to 50 nM | 1 to 10 nM | 500 to 1000 nM |  |  |  | 
12 | O=S(=O)(Nc1cc(F)c(F)c(Nc2ncnc3sc(-n4cnc5ccccc54)nc23)c1F)c1cccc(Cl)c1Cl [Example 159, N-[3-[[2-(benzimidazol-1-yl)thiazolo[5,4-d]pyrimidin-7-yl]amino]-2,4,5-trifluoro-phenyl]-2,3-dichloro-benzenesulfonamide] |  |  |  |  | < 500 nM | < 10 nM | 1 to 10 nM | 
13 | CN(C1CCOC1)S(=O)(=O)c1cn(-c2nc3c(Nc4c(F)ccc(NS(=O)(=O)c5cccc(Cl)c5Cl)c4F)ncnc3s2)c2ccccc12 (stereo not shown) [Example 66] | < 500 nM | 10 to 50 nM | 1 to 10 nM |  |  |  |  | −13%
14 | COc1ccc(S(=O)(=O)Nc2ccc(F)c(Nc3ncnc4sc(-n5cnc6c(N)cccc65)nc34)c2F)c(C)c1F [Example 15] | < 500 nM | 10 to 50 nM | 1 to 10 nM |  |  |  |  | −3%
15 | O=C(c1cn(-c2nc3c(Nc4c(F)ccc(NS(=O)(=O)c5cccc(Cl)c5Cl)c4F)ncnc3s2)c2ccccc12)N1CCC(O)C1 (stereo not shown) [Example 53] | 500 to 1000 nM | < 10 nM | < 1 nM |  |  |  |  | −9%

More lines, main results first:

Row | IC50 (pERK, HCT116 cells; Table 3) | IC50 (CRAF; Table 3) | IC50 (BRAF; Table 3) | IC50 (pERK, HCT116 cells; Homo sapiens, HCT-116, Table 3) | IC50 (pERK, HCT116 cells; Homo sapiens, HCT-116, Table 4) | IC50 (CRAF; Table 4) | IC50 (BRAF; Table 4) | SMILES | HCT116 pERK (Ymin %) (pERK, HCT116 cells; Table 3)
16 | < 500 nM | 10 to 50 nM | 1 to 10 nM |  |  |  |  | O=S(=O)(Nc1ccc(F)c(Nc2ncnc3sc(-n4cnc5c(N6CCC(F)(CO)CC6)cccc54)nc23)c1F)c1cccc(Cl)c1Cl [Example 142] | 0%
17 | < 500 nM | < 10 nM | 1 to 10 nM |  |  |  |  | CC1(O)CCN(C(=O)c2cn(-c3nc4c(Nc5c(F)ccc(NS(=O)(=O)c6cccc(Cl)c6Cl)c5F)ncnc4s3)c3ccccc23)CC1 [Example 85] | 8%
18 | < 500 nM | 10 to 50 nM | 1 to 10 nM |  |  |  |  | CC(C)(C#N)c1cccc2c1ncn2-c1nc2c(Nc3c(F)ccc(NS(=O)(=O)c4cccc(Cl)c4Cl)c3F)ncnc2s1 [Example 104] | −10%
19 | < 500 nM | < 10 nM | < 1 nM |  |  |  |  | CC(=O)N1CCN(c2cccc3c2ncn3-c2nc3c(Nc4c(F)ccc(NS(=O)(=O)c5cccc(Cl)c5Cl)c4F)ncnc3s2)CC1 [Example 130] | −2%
20 | 1000 to 10000 nM | 10 to 50 nM | > 10 nM |  |  |  |  | CC1(O)CCCN(c2cccc3c2ncn3-c2nc3c(Nc4c(F)ccc(NS(=O)(=O)c5cccc(Cl)c5Cl)c4F)ncnc3s2)CC1 (stereo not shown) [Example 150] | −5%
21 | < 500 nM | < 10 nM | 1 to 10 nM |  |  |  |  | Nc1cccc2c1ncn2-c1nc2c(Nc3c(F)ccc(NS(=O)(=O)c4cccc(Cl)c4Cl)c3F)ncnc2s1 [Example 3] | −9%
22 | 500 to 1000 nM | < 10 nM | 1 to 10 nM |  |  |  |  | O=S(=O)(Nc1ccc(F)c(Nc2ncnc3sc(-n4cnc5cc(F)c(F)cc54)nc23)c1F)c1cccc(Cl)c1Cl [Example 19] | −14%
23 |  | < 10 nM | 1 to 10 nM | < 500 nM |  |  |  | N#Cc1cccc2c1ncn2-c1nc2c(Nc3c(F)ccc(NS(=O)(=O)c4cccc(Cl)c4Cl)c3F)ncnc2s1 [Example 120] | 
24 | < 500 nM | 10 to 50 nM | 1 to 10 nM |  |  |  |  | O=C1CCCC12CCN(c1cccc3c1ncn3-c1nc3c(Nc4c(F)ccc(NS(=O)(=O)c5cccc(Cl)c5Cl)c4F)ncnc3s1)CC2 [Example 151] | −2%
25 | < 500 nM | > 50 nM | > 10 nM |  |  |  |  | CC1(CO)CCN(c2cccc3c2ncn3-c2nc3c(Nc4c(F)ccc(NS(=O)(=O)c5cccc(Cl)c5Cl)c4F)ncnc3s2)CC1 [Example 138] | −14%
26 | < 500 nM | < 10 nM | < 1 nM |  |  |  |  | O=S(=O)(Nc1ccc(F)c(Nc2ncnc3sc(-n4cnc5c(N6CCOC(CO)C6)cccc54)nc23)c1F)c1cccc(Cl)c1Cl (stereo not shown) [Example 141] | 2%
27 | 1000 to 10000 nM | > 50 nM | 1 to 10 nM |  |  |  |  | CC(=O)c1cn(-c2nc3c(Nc4c(F)ccc(NS(=O)(=O)c5cccc(Cl)c5Cl)c4F)ncnc3s2)c2ccccc12 [Example 88] | −8%
28 |  | < 10 nM | 1 to 10 nM | 500 to 1000 nM |  |  |  | O=S(=O)(Nc1ccc(F)c(Nc2ncnc3sc(-n4cnc5ccccc54)nc23)c1F)c1cccc(Cl)c1Cl [Example 4, N-[3-[[2-(benzimidazol-1-yl)thiazolo[5,4-d]pyrimidin-7-yl]amino]-2,4-difluoro-phenyl]-2,3-dichloro-benzenesulfonamide] | 
29 | < 500 nM | > 50 nM | > 10 nM |  |  |  |  | O=S(=O)(Nc1ccc(F)c(Nc2ncnc3sc(-n4cnc5c(N6CCC(O)(C(F)(F)F)CC6)cccc54)nc23)c1F)c1cccc(Cl)c1Cl [Example 137] | −14%
